Structures are written as SMILES.

The values that follow come from patent US8592173B2, “Cancer diagnosis by measuring polyisoprenylated methylated protein methyl esterase activity” (Florida Agricultural and Mechanical University, priority 2011, dated 2013).

In the assay the test system is PMPMEase. Kind of assay: Inhibition of PMPMEase by drugs, curcumin, fatty acids and prostaglandins. It counts as biochemical. The conditions noted are these: for concentrations at which PMPMEase is inhibited: concentration range stated in words only.

With `CCCCC/C=C\C/C=C\C/C=C\C/C=C\CCCC(=O)O` [arachidonic acid], the “concentrations at which PMPMEase is inhibited” value is listed as “micromolar concentrations”. On to `CCCCC[C@H](O)/C=C/[C@H]1C=CC(=O)[C@@H]1C/C=C\CCCC(=O)O` [Prostaglandin (PG) A2], for which the “fold less potent than AA as PMPMEase inhibitor” value (relative to arachidonic acid (AA)) worked out at 63 fold. As for `O=P1(N(CCCl)CCCl)NCCCO1` (stereo not drawn) [cyclophosphamide], the “concentrations at which PMPMEase is inhibited” value is reported as “millimolar concentrations”. As to `CC/C(=C(\c1ccccc1)c1ccc(OCCN(C)C)cc1)c1ccccc1` [tamoxifen], the “concentrations at which PMPMEase is inhibited” value is reported as “millimolar concentrations”.

Turning to `COc1cc(/C=C/C(=O)CC(=O)/C=C/c2ccc(O)c(OC)c2)ccc1O` [curcumin], the “concentrations at which PMPMEase is inhibited” value was “micromolar concentrations”. For the compound `CCCCC[C@H](O)/C=C/[C@H]1[C@H](O)CC(=O)[C@@H]1C/C=C\CCCC(=O)O` [PGE2], the “inhibition of PMPMEase at 1 mM” value (1 mM) was “did not inhibit”.
